Source: US11192849B2, “Compounds, compositions, and methods for modulating ferroptosis and treating excitotoxic disorders” (THE TRUSTEES OF COLUMBIA UNIVERSITY IN THE CITY OF NEW YORK, priority 2013, dated 2021)
Where two headings read alike, the source gives them in different places. One block for each compound: values may come before it.

Legend:
HT-1080 cells = experiment: Inhibition of erastin (10 μM)-induced death in HT-1080 cells (Alamar Blue); format: cell-based, human; details: for prevention of erastin-induced death: erastin-treated HT-1080 cells
Description: Cell viability was typically assessed in 384-well format by Alamar Blue (Invitrogen) fluorescence (ex/em 530/590) measured on a Victor3 platereader (Perkin Elmer, Waltham, Mass.). In some experiments, Trypan Blue dye exclusion counting was performed using an automated cell counter (ViCell, Beckman-Coulter Inc., Brea, Calif.). Cell viability in test conditions is reported as a percentage relative to the negative control treatment.
The ability of various compounds disclosed herein to inhibit death in erastin (10 μM)-treated HT-1080 cells were tested. Cell viability was assessed by Alamar Blue. EC50 values (nM) were computed from dose response curves.
HT-1080 cells are cultured in DMEM containing 10% fetal bovine serum, 1% supplemented non-essential amino acids and 1% pen/strep mixture (Gibco) and maintained in a humidified environment at 37° C. with 5% CO2 in a tissue culture incubator. 1,000 HT-1080 cells are seeded per well in duplicate 384-well plates (Corning) using a BioMek FX liquid handling robot (Beckman Coulter). The next day, the medium is replaced with 36 μL of medium containing 10 μM erastin with 4 μL of medium containing a dilution series (previously prepared) of DMSO, Fer-1 (positive control) or Fer-1 analogs. 24 hours later, 10 μL Alamar Blue (Invitrogen) cell viability solution is added to the growth media to a final concentration of 10%. Cells are incubated a further 6 hours and then the Alamar Blue fluorescence intensity recorded using a Victor 3 platereader (PerkinElmer)(ex/em 530/590). All experiments are performed at least twice and the background (no cells)-subtracted Alamar Blue values for each combination are averaged between replicates.

[1] = Metabolic stability in mouse liver microsomes; format: in vitro ADME; details: for Elimination rate constant (k) / Intrinsic Clearance (CLint) (mL/min/g liver): Mouse; for half-life at 0.5 μM: mouse, liver microsomes
Description: Test compounds (0.5 μM) were incubated at 37° C. for up to 45 minutes in 50 mM of potassium phosphate buffer (pH 7.4) containing mouse liver microsomal protein (0.5 mg/mL) and an NADPH generating system (0.34 mg/mL β-nicotinamide adenine dinucleotide phosphate (NADP), 1.56 mg/mL glucose-6-phosphate, 1.2 units/mL glucose-6-phosphate dehydrogenase). At 0, 5, 15, 30, and 45 minute intervals, an aliquot was taken and quenched with acetonitrile (ACN) containing internal standard. No-cofactor controls at 45 minutes were prepared. Following completion of the experiment, the samples were analyzed by LC-MS/MS.
The half-life (t1/2) was calculated using the following equation: t1/2=0.693/k Where, k is the elimination rate constant of test compounds obtained by fitting the data to the equation: C=initial×exp(−k×t) Intrinsic clearance (Clint) is calculated as liver clearance from the half-life using the following equation: […]
0.5 mg protein/mL incubation
Ethoxycoumarin was used as a control.

[2] = In vitro stability study in mouse plasma; format: in vitro ADME
Description: The assay was conducted by incubating 1 μM of test compounds with Mouse Plasma (Strain […]) for a series of incubation times (0, 15, 30, 60, 120 minutes) at various temperatures (wet ice, room temperature, or 37° C.) with 5% CO2 and shaking (130 rpm). At each time point, the samples were quenched with 200 μL of stop solution containing an internal standard and kept on ice. The samples were analysed by LC-MS/MS.

[3] = Homo sapiens, HT-1080, Table 1 (Example 10), erastin (10 μM)-treated HT-1080 cells, read-out: EC50
[4] = pH 7.4, Mouse, Compound Conc = 0.5 μM, read-out: Half life (t½)
[5] = Homo sapiens, HT-1080, SI Table 6, read-out: EC50
[6] = Homo sapiens, HT-1080, SI Table 7, read-out: EC50
[7] = Homo sapiens, HT-1080, SI Table 5, read-out: EC50
[8] = Homo sapiens, HT-1080, SI Table 4, various R3 substitutions, read-out: EC50
[9] = SI Table 2, analogs with various hydrophobic moieties, read-out: EC50
[10] = Homo sapiens, HT-1080, SI Table 3, cyclic amines bearing heteroatoms, read-out: EC50

SMILES: CCOC(=O)c1ccc(NC23CC4CC(CC(C4)C2)C3)c(NCc2cncnc2)c1 [SRS16-41, ethyl 4-(adamantylamino)-3-(pyrimidin-5-ylmethylamino)benzoate]
EC50 (HT-1080 cells; [3]): 16 nM | Elimination rate constant (k) ([1]; Compound Conc = 0.5 μM): 0.3149 | Intrinsic Clearance (CLint) (mL/min/g liver) ([1]; Compound Conc = 0.5 μM): 35.9 mL/min/g liver | half-life at 0.5 μM [1, 4]: 2 min | Peak Area Ratio ([2]; Room Temperature, 0 min): 5.8556 | Percent Remaining ([2]; Room Temperature, 0 min): 100.0% | Peak Area Ratio ([2]; Room Temperature, 15 min): 0.6709 | Percent Remaining ([2]; Room Temperature, 15 min): 11.5% | Peak Area Ratio ([2]; Room Temperature, 30 min): 0.0885 | Percent Remaining ([2]; Room Temperature, 30 min): 1.5% | Peak Area Ratio ([2]; Room Temperature, 60 min): 0.0206 | Percent Remaining ([2]; Room Temperature, 60 min): 0.4% | Peak Area Ratio ([2]; Room Temperature, 120 min): 0.0159 | Percent Remaining ([2]; Room Temperature, 120 min): 0.3% | Peak Area Ratio ([2]; Wet Ice, 0 min): 6.9233 | Percent Remaining ([2]; Wet Ice, 0 min): 100.0% | Peak Area Ratio ([2]; Wet Ice, 15 min): 5.7631 | Percent Remaining ([2]; Wet Ice, 15 min): 83.2% | Peak Area Ratio ([2]; Wet Ice, 30 min): 4.7595 | Percent Remaining ([2]; Wet Ice, 30 min): 68.7% | Peak Area Ratio ([2]; Wet Ice, 60 min): 3.4547 | Percent Remaining ([2]; Wet Ice, 60 min): 49.9% | Peak Area Ratio ([2]; Wet Ice, 120 min): 1.9564 | Percent Remaining ([2]; Wet Ice, 120 min): 28.3%

SMILES: CC(C)OC(=O)c1ccc(NC23CC4CC(CC(C4)C2)C3)c(/N=C\c2cncnc2)c1 [SRS16-80, isopropyl 4-(adamantylamino)-3-(pyrimidin-5-ylmethyleneamino)benzoate]
fold lower potency caused by the imine (HT-1080 cells; HT-1080, erastin (10 μM)): about 6 fold | EC50 (HT-1080 cells; Homo sapiens, HT-1080, Example 15, erastin (10 μM), HT-1080, read-out: EC50): ~300 nM | EC50 (HT-1080 cells; [3]): 583 nM | Elimination rate constant (k) ([1]; Compound Conc = 0.5 μM): 0.0089 | Intrinsic Clearance (CLint) (mL/min/g liver) ([1]; Compound Conc = 0.5 μM): 0.94 mL/min/g liver | half-life at 0.5 μM [1, 4]: 77.7 min | half-life at 0.5 μM ([1]; pH 7.4, stated in the text of Example 15, read-out: T1/2 in mouse liver microsomes): 154 min | mouse plasma stability [2]: rapidly hydrolyzed | Percent Remaining ([2]; 37° C., 0 minutes): 100.0% | Sum of Peak Area Ratios ([2]; 37° C., 0 minutes): 0.382 | Percent Remaining ([2]; 37° C., 15 minutes): 23.8% | Sum of Peak Area Ratios ([2]; 37° C., 15 minutes): 0.0911 | Percent Remaining ([2]; 37° C., 30 minutes): 9.9% | Sum of Peak Area Ratios ([2]; 37° C., 30 minutes): 0.0379 | Percent Remaining ([2]; 37° C., 60 minutes): 4.5% | Sum of Peak Area Ratios ([2]; 37° C., 60 minutes): 0.017 | Percent Remaining ([2]; 37° C., 120 minutes): 2.5% | Sum of Peak Area Ratios ([2]; 37° C., 120 minutes): 0.0095 | half-life at 1 μM ([2]; C57BL/4, mouse, plasma, read-out: T1/2 in mouse plasma): < 15 min

SMILES: Cc1ccc(N(CC(=O)O)CC(=O)O)c(OCCOc2cc3cc(-c4ncc(C(=O)O)o4)oc3cc2N(CC(=O)O)CC(=O)O)c1 [Fura-2, reference compound]
prevention of erastin-induced death (HT-1080 cells): had no effect on erastin-induced death

SMILES: NCCOCCOC(=O)c1ccc(NC2CCCCC2)c(N)c1 [SRS8-43, 2-(2-aminoethoxy)ethyl 3-amino-4-(cyclohexylamino)benzoate]
EC50 (HT-1080 cells; Homo sapiens, HT-1080, SI Table 4, various R3 substitutions): 420 nM

SMILES: CCOC(=O)c1ccc(Cl)c(N)c1 [SRS8-62]
EC50 (HT-1080 cells; SI Table 8, read-out: EC50): > 10000 nM

SMILES: CCOC(=O)c1ccc(NC2CCCCC2)c(NCc2ccc(OC)cc2)c1 [SRS12-43, ethyl 4-(cyclohexylamino)-3-((4-methoxybenzyl)amino)-benzoate]
EC50 (HT-1080 cells; [5]): 69 nM

SMILES: CCOC(=O)c1ccc(NC2CCCCC2)c(NCc2cccnc2)c1 [SRS13-12, ethyl 4-(cyclohexylamino)-3-(pyridin-3-ylmethylamino)-benzoate]
EC50 (HT-1080 cells; [6]): 48 nM

SMILES: CCOC(=O)c1ccc(NC2C3CC4CC(C3)CC2C4)c(N)c1 (centres unmarked) [SRS15-17, ethyl 3-amino-4-(2-adamantylamino)benzoate]
EC50 (HT-1080 cells; [3]): 171 nM

SMILES: CCOC(=O)c1ccc(NC2CCCCC2)c(NCc2ccc(Cl)cc2)c1 [SRS12-49, ethyl 3-(4-chlorobenzylamino)-4-(cyclohexylamino)benzoate]
EC50 (HT-1080 cells; [5]): 371 nM

SMILES: CCOC(=O)c1ccc(NC2CCCCC2)c(NCc2ccc(C#N)cc2)c1 [SRS12-50, ethyl 3-(4-cyanobenzylamino)-4-(cyclohexylamino)benzoate]
EC50 (HT-1080 cells; [5]): 100 nM

SMILES: CCOC(=O)c1ccc(NC2CCC(C(C)(C)C)CC2)c(NCc2ccccc2)c1 (single isomer, unassigned) [SRS13-29, ethyl 3-(benzylamino)-4-(4-tert-butylcyclohexylamino)benzoate]
EC50 (HT-1080 cells; [6]): 83 nM

SMILES: CCOC(=O)c1ccc(NC2CCCCCCC2)c(NC(=O)OC(C)(C)C)c1 [SRS8-91, ethyl 3-(tert-butoxycarbonylamino)-4-(cyclooctylamino)-benzoate]
EC50 (HT-1080 cells; [7]): > 10000 nM

SMILES: CCOC(=O)c1ccc(NC2CCC(C(C)(C)C)CC2)c(NCc2ccncc2)c1 (centres unmarked) [SRS13-30, ethyl 4-(4-tert-butylcyclohexylamino)-3-(pyridin-4-ylmethylamino)benzoate]
EC50 (HT-1080 cells; [6]): 114 nM

SMILES: O=C(O)CN(CCOCCOCCN(CC(=O)O)CC(=O)O)CC(=O)O [EGTA, reference compound]
prevention of erastin-induced death (HT-1080 cells): had no effect on erastin-induced death

Elimination rate constant (k) ([1]; Compound Conc = 0.5 μM): 0.2661 | Intrinsic Clearance (CLint) (mL/min/g liver) ([1]; Compound Conc = 0.5 μM): 27.94 mL/min/g liver | half-life at 0.5 μM [1, 4]: 2.6 min
SMILES: CCOc1ccc2ccc(=O)oc2c1 [Ethoxycoumarin, reference compound]

SMILES: CC(C)(C)OC(=O)c1ccc(NC2CCCCCCC2)c(N)c1 [SRS8-87, tert-butyl 3-amino-4-(cyclooctylamino)benzoate]
EC50 (HT-1080 cells; [8]): 90 nM

SMILES: CCOC(=O)c1ccc(NC2CCCCC2)c(NC(=O)OCc2ccccc2)c1 [SRS11-89, ethyl 3-(benzyloxycarbonylamino)-4-(cyclohexylamino)-benzoate]
EC50 (HT-1080 cells; [7]): > 10000 nM

SMILES: CCOC(=O)c1ccc(NC2CCCC2)c(N)c1 [SRS8-73]
EC50 (HT-1080 cells; [9]): 120 nM

SMILES: CCOC(=O)c1ccc(NC2CCCCC2)c(NC(C)=O)c1 [SRS11-98, ethyl 4-(cyclohexylamino)-3-ethanamidobenzoate]
EC50 (HT-1080 cells; [7]): > 10000 nM

SMILES: CCOC(=O)c1ccc(NC2CCC(N)CC2)c(N)c1 (centres unmarked) [SRS8-80, ethyl 3-amino-4-(4-aminocyclohexylamino)benzoate]
EC50 (HT-1080 cells; [10]): 380 nM

SMILES: CCCCCCCCCCOC(=O)c1ccc(NC2CCCCC2)c(N)c1 [SRS12-29, decyl 3-amino-4-(cyclohexylamino)benzoate]
EC50 (HT-1080 cells; [8]): 76 nM

SMILES: CCOC(=O)c1ccc(CNc2cc(C(=O)OCC)ccc2NC2CCCCC2)cc1 [SRS12-84, ethyl 4-(cyclohexylamino)-3-(4-(ethoxycarbonyl)benzylamino)-benzoate]
EC50 (HT-1080 cells; [6]): 53 nM

SMILES: CCOC(=O)c1ccc(NC2CCCCCC2)c(N)c1 [SRS8-90]
EC50 (HT-1080 cells; [9]): 130 nM

SMILES: CCOC(=O)c1ccc(NC2CCN(C(=O)OC(C)(C)C)CC2)c(N)c1 [SRS8-47, tert-butyl 4-(2-amino-4-(ethoxycarbonyl)phenylamino)-piperidine-1-carboxylate]
EC50 (HT-1080 cells; [10]): 710 nM

SMILES: O=C(O)C(Cl)Cl [DCA, dichloroacetic acid, reference compound]
prevention of erastin-induced death (HT-1080 cells): had no effect on erastin-induced ferroptosis

SMILES: CCOC(=O)c1ccc(NC2CCCCC2)c(NCc2cccc(F)c2)c1 [SRS12-57, ethyl 4-(cyclohexylamino)-3-(3-fluorobenzylamino)benzoate]
EC50 (HT-1080 cells; [5]): 100 nM

SMILES: Nc1cc(C(=O)OCCN2CCOCC2)ccc1NC1CCCCC1 [SRS12-47, 2-morpholinoethyl 3-amino-4-(cyclohexylamino)benzoate]
EC50 (HT-1080 cells; [8]): 660 nM

SMILES: CCOC(=O)c1ccc(NC2CCCCCCC2)c(NC)c1 [SRS9-14, ethyl 4-(cyclooctylamino)-3-(methylamino)benzoate]
EC50 (HT-1080 cells; [7]): 70 nM
